Consider four molecules from paper PMC6533283, “Deciphering the regulatory and catalytic mechanisms of an unusual SAM-dependent enzyme” (Signal Transduction and Targeted Therapy, 2019).

Data set [1] has as its target T1, LepI (Aspergillus flavus, UniProt B8NJH3).
T1 construct: codon-optimized gene in pET-15b (NdeI/XhoI), N-terminal His tag, E. coli BL21(DE3); homodimer; SAM and MTA partly copurify
Kind of data set: HPLC assay of retro-Claisen rearrangement of compound […]. The class given is biochemical. Conditions: read-out: % inhibition at 0.5 mM.

Data set [2] addresses T1, LepI. The experiment in a line: HPLC assay of retro-Claisen rearrangement of compound […], rescue of SAH/MTA inhibition. The class given is biochemical. Conditions: 1 mM SI with 1 mM SAH or 1 mM MTA, 300 nM LepI, pH 8.0, 30 °C; SAM analogue, activator.
Data set [3] deals with the molecule itself. The experiment in a line: crystal structure; LepI crystals grown in 0.15 M bis-Tris pH 7.0, 40% PEG 400; structures with SAM/MTA (1.7 Å), SAH (2.7 Å) and SAM/compound 1 (2.2 Å); two molecules in the asymmetric unit.
Data set [4] deals with the molecule itself. Kind of data set: SEC; analytical gel filtration, Superdex 200 Increase 10/30 GL, protein at 1 mg/mL, 20 mM Na2HPO4, 50 mM NaCl, pH 8.0; sizes by standard protein markers. In general terms: Size exclusion chromatography separates by hydrodynamic size, large species first.

“And” between values parts separate entries of the source, which are not always exact repeats. Equal values may be shown once.

As a reminder, the inhibition is the percentage by which the read-out fell short of the control. With `CSC[C@H]1O[C@@H](n2cnc3c(N)ncnc32)[C@H](O)[C@@H]1O` [MTA], the inhibition at 500 µM in data set [1] came to 30%.

Take `Nc1ncnc2c1ncn2[C@@H]1O[C@H](C[C@@H](N)CC[C@H](N)C(=O)O)[C@@H](O)[C@H]1O` [Sinefungin]: in data set [2], the “HPLC assay of retro-Claisen rearrangement of compound 1, rescue of SAH/MTA inhib” value was “both SAM and SI completely rescued LepI activity for retro-Claisen rearrangement”.

B1: leporin biosynthesis enzyme LepI (enzyme, Aspergillus flavus)
chain: METVAAIKTLIQQLAQSTDQFGRAEINDALRELQYSLETPFDTVMRMSLDTCQVAVARIGSDLGLFKHLSQCASPQSAEELADHLGCGRELMSRLLRYMASVRMVQQTDDIKYISSNITQTLAVPGLEAGMRHAFENLWPVLMALPDFLAERKYPDIVDAKDTAFQKAFNTDQDCFHWLATQPTRIANFKVLLTDERTPNFLSTFPLEKELGSWSAEPEKALFVDIGGGMGHACIRLREKYPNQPGRVILQDLPPVLQAAQATLPLSGIESMPHNFHTPQPVQGAKFYFLRLILRDFPDHQALEILQNIVPAMDAESRIVIDDGVPPEKGARWAETGTDICIMSALGSKERTQRQWEELAAKAGLQLQALYQYTWPVVNAAMVFSLQ
notes: LepI, SAM-dependent enzyme of the leporin biosynthesis gene cluster of Aspergillus flavus; codon-optimized gene in pET-15b between NdeI and XhoI; Homodimer in the asymmetric unit of the crystal; Endogenous SAM and MTA co-purified with the protein; A selenomethionine form was used for phasing; also called wild-type (WT) LepI; native-LepI; source: E. coli BL21 (DE3), purified (Ni resin, …)
For B1, the binding result in data set [3] is reported as “binds”.

B2: LepI-Δ15 (domain or fragment, Aspergillus flavus, UniProt B8NJH3 16-387, looked up)
chain: QSTDQFGRAEINDALRELQYSLETPFDTVMRMSLDTCQVAVARIGSDLGLFKHLSQCASPQSAEELADHLGCGRELMSRLLRYMASVRMVQQTDDIKYISSNITQTLAVPGLEAGMRHAFENLWPVLMALPDFLAERKYPDIVDAKDTAFQKAFNTDQDCFHWLATQPTRIANFKVLLTDERTPNFLSTFPLEKELGSWSAEPEKALFVDIGGGMGHACIRLREKYPNQPGRVILQDLPPVLQAAQATLPLSGIESMPHNFHTPQPVQGAKFYFLRLILRDFPDHQALEILQNIVPAMDAESRIVIDDGVPPEKGARWAETGTDICIMSALGSKERTQRQWEELAAKAGLQLQALYQYTWPVVNAAMVFSLQ
notes: LepI of Aspergillus flavus with an N-terminal deletion (Δ15, removes helix α1); N-terminal truncation designed from the structure to disrupt dimerization; also called α1 single deletion of LepI; α1 single deleted enzyme; source: E. coli, purified as described for LepI
The term stoichiometry N denotes a count of units in the complex or per binding partner. As to B2, the “stoichiometry N” value in data set [4] was 2 and 4.
